Patent US20260355318A1, “MOLECULAR MACHINES FOR TREATMENT OF CANCER, FUNGAL INFECTIONS, OR BACTERIAL INFECTIONS” (priority 2022, published 2026)
Read-outs that look alike come from different tables or passages of the source.

Columns and labels:
E. coli [1] = test: Effect of ROS scavengers on MM 1-induced killing of E. coli; assay type: cell-based, Escherichia coli; conditions: MM 1 2×MIC, NAC 1 mM, TU 100 mM
Description: All results are shown as the mean of at least 3 biological replicas±standard error of the mean.

E. coli [2] = test: MIC, E. coli; assay type: cell-based, Escherichia coli BW25113; conditions: Escherichia coli, read-out: MIC of MM
A. baumannii [3] = test: MIC, A. baumannii; assay type: cell-based, Acinetobacter baumannii; conditions: Acinetobacter baumannii, read-out: MIC of MM
Procedure: (§1) The appropriate volume of an MM stock at 8 mM necessary to achieve a concentration ranging from 0.3125 to 40 μM was pipetted into a 2 mL microcentrifuge tube to which 1 mL of cell suspension prepared as previously described was added. Corresponding negative controls (DMSO only) were prepared in the same way. The mixture was gently mixed by pipetting and incubated in the dark at 30 or 37 ° C, depending on the strain, for 30 min with agitation (220 rpm). Afterward, MM- or DMSO-treated cells were dispensed in one well of a 24-well plate positioned in the center of the light beam (405 nm LED Light, Prizmatix, UHP—F-5-405) placed at the appropriate distance necessary to achieve the desired light intensity of 304 mW cm-2, 146 mW cm2 or 87 mW cm2, as measured with a handheld digital power meter console coupled to an S415C thermal power sensor head (Thorlabs, Newton, MA, USA). The temperature during irradiation was monitored using a thermocouple probe (Model SC-TT-K-30-36-PP; Omega Engineering, Inc., Stanford, CT, USA). Samples were agitated during irradiation. Dark controls were prepared as previously described except that no irradiation was provided.
(§2) For MIC determination, samples treated with a range of concentrations of the different MM, as described above and were irradiated one at a time for 5 min at 146 mW cm^−2 (43.8 J cm^−2), after which irradiated aliquots were collected and inoculated into 1 mL MHB in a 2 mL microcentrifuge tube. Samples were incubated overnight at 30 or 37 ° C, depending on the strain, without agitation. Corresponding non-irradiated samples and negative controls (without bacteria) were also included. The following day, cultures were inspected for growth and the MIC was identified. The experimental procedure used to determine the MIC of visible light-activated MMs is schematically depicted in FIG. 26.

P. aeruginosa [4] = test: MIC, P. aeruginosa; assay type: cell-based, Pseudomonas aeruginosa; conditions: Pseudomonas aeruginosa, read-out: MIC of MM
Procedure: as §1, §2

S. aureus [5] = test: MIC, S. aureus; assay type: cell-based, Staphylococcus aureus; conditions: Staphylococcus aureus, read-out: MIC of MM
Procedure: as §1, §2

E. coli [6] = test: Time-kill / light-dose experiments, E. coli; assay type: cell-based, Escherichia coli; conditions: for time to reduce cell number to limit of detection: E. coli, 2×MIC, 146 mW cm^−2 405 nm
Procedure: (§3) Serial dilutions of irradiated cell suspensions were prepared in PBS. A volume of 10 AL of the appropriate serial dilutions was spot-plated onto LB agar plates. Following overnight incubation at 30 or 37 ° C, depending on the strain, bacterial viability was assessed as colony forming units (CFU) per mL. Results were expressed as log (N/NO) whereby N is the CFU mL^−1 at each irradiation time point and NO is the initial CFU mL^−1 of the corresponding sample. Only dilutions that yielded 10-100 colonies were counted.

S. aureus [7] = test: Time-kill / light-dose experiments, S. aureus; assay type: cell-based, Staphylococcus aureus; conditions: 2×MIC, 146 mW cm^−2 405 nm
Procedure: as §3

[8] = test system: persister cells of E. coli; test: Persister eradication, E. coli; assay type: cell-based, Escherichia coli; conditions: 1×MIC, 405 nm
Procedure: (§4) Persister cells of E. coli were prepared by adding ampicillin (100 μg mL^−1) to exponential-phase cells (OD600 of ≈0.8) followed by continuous agitation for another 3 b, as previously described (Keren et al., 2004). In the case of S. aureus, almost all stationary-phase are considered to be persistent (Keren et al., 2004). S. aureus cells were grown at 37 ° C and 220 rpm in LB broth to an OD600 of 0.3. Cells were then diluted 1:1000 in 25 mL LB and grown for 16 h at 37 ° C and 220 rpm in 250 mL flasks. […] At specified time points (0, 1, 2, 3, 4 and 5, 10 and 15 min), 50-μL aliquots were removed, serially diluted and spot-plated onto LB agar plates to determine colony-forming units per mL (CFU mL^−1). Only dilutions that yielded 10-100 colonies were counted. Results were expressed as log (N/NO) whereby N is the CFU mL^−1 at each irradiation time point and NO is the initial CFU mL^−1 of the corresponding sample. […].

[9] = test system: persister cells of P. aeruginosa; test: Persister eradication, P. aeruginosa; assay type: cell-based, Pseudomonas aeruginosa; conditions: 1×MIC, 405 nm
[10] = test system: persister cells of S. aureus; test: Persister eradication, S. aureus; assay type: cell-based, Staphylococcus aureus; conditions: 1×MIC, 405 nm
Procedure: as §4

A. baumannii [11] = test: Time-kill / light-dose experiments, A. baumannii; assay type: cell-based, Acinetobacter baumannii; conditions: 2×MIC, 146 mW cm^−2 405 nm
Procedure: as §3

P. aeruginosa [12] = test: Time-kill / light-dose experiments, P. aeruginosa; assay type: cell-based, Pseudomonas aeruginosa; conditions: 2×MIC, 146 mW cm^−2 405 nm
Procedure: as §3

C. albicans = test: MIC, visible-light-activated MMs and conventional antifungals, C. albicans; assay type: cell-based, Candida albicans (ATCC 18804); conditions: Candida albicans, read-out: MIC of antifungal agent
Procedure: C. albicans cell suspensions were incubated with increasing concentrations of MMs and irradiated with 405-nm light at 292 mW cm^−2 for 5 min (87.6 J cm^−2). The minimum inhibitory concentration (MIC) was defined as the MM concentration resulting in no visible fungal growth after irradiation with 87.6 J cm^−2 of 405-nm light.
(§5) Cell suspensions for susceptibility testing (MMs and conventional antifungals) were prepared per the Clinical & Laboratory Standards Institute (CLSI) guidelines (CLSI, 2017; CLSI, 2008). Before testing, yeasts (C. albicans and S. cerevisiae) were sub-cultured in Sabouraud Dextrose Agar-Emmons Modification (SDAE) plates and grown for 24 h at 30 °C. Five independent colonies from 24-h-old plates were collected and diluted to ~10^4 colony forming units (CFU) per mL in sterile saline (CLSI, 2017). Molds (A. fumigatus and the dermatophytes T. rubrum and M. gypseum) were sub-cultured on SDAE medium and incubated for 7 days at 28 °C. Conidia were recovered by covering the plates with sterile distilled water and scraping the colonies. The suspensions were filtered (8-μm pore size) and diluted in saline to ~10^4 CFU mL^−1 (Santos and Hamdan, 2005).
(§6) After a 30-min incubation in the dark, cell suspensions were transferred to small, sterilized glass beakers, which were then placed in a water bath. Each sample was irradiated with 405-nm light at 292 mW cm^−2 for 5 min, corresponding to a light dose of 87.6 J cm^−2, determined using an S415C thermal power sensor (Thorlabs, Newton, MA, USA). During irradiation, the cell suspensions were agitated with a small metal stirrer. A thermocouple probe (model SC-TT-K-30-36-PP; Omega Engineering, Inc., Stanford, CT, USA) was used to monitor the temperature during irradiation. Irradiated cell suspensions were inoculated in 3-(N-morpholino) propanesulfonic acid (MOPS)-buffered Roswell Park Memorial Institute Medium (RPMI) 1640 (pH 7.0). Tubes were incubated at 30 ° C for 48 h (yeasts) and 28 ° C for 7 days (molds). The antifungal or MM concentration resulting in no visible growth was defined as the minimum inhibitory concentration (MIC) (CLSI, 2017; CLSI, 2008). Similarly prepared cell suspensions were used to determine the MIC of conventional antifungals.

S. cerevisiae = test: MIC, MMs and antifungals, S. cerevisiae; assay type: cell-based, Saccharomyces cerevisiae (ATCC 13007); conditions: Saccharomyces cerevisiae, broth microdilution, read-out: MIC of antifungal agent
Procedure: as §5, §6

A. fumigatus = test: MIC, MMs and antifungals, A. fumigatus; assay type: cell-based, Aspergillus fumigatus (ATCC 1022); conditions: Aspergillus fumigatus, read-out: MIC of antifungal agent
Procedure: as §5
After a 30-min incubation in the dark, cell suspensions were transferred to small, sterilized glass beakers, which were then placed in a water bath. Each sample was irradiated with 405-nm light at 292 mW cm^−2 for 5 min, corresponding to a light dose of 87.6 J cm^−2, determined using an S415C thermal power sensor (Thorlabs, Newton, MA, USA). During irradiation, the cell suspensions were agitated with a small metal stirrer. […]

[13] = test system: biofilms of P. aeruginosa and S. aureus; test: Biofilm total bacterial cell number (acridine orange); assay type: cell-based, Pseudomonas aeruginosa, Staphylococcus aureus; conditions: 2×MIC, vs untreated controls
Procedure: (§7) This combination of methods is effective at evaluating the antibiofilm potential of chemicals (Stiefel et al., 2016). P. aeruginosa and S. aureus were grown overnight in tryptic soy broth (TSB) medium. The overnight cultures were diluted in 1:100 in fresh media and 100 μL aliquots were distributed in a 96-well plate. After 24 h of static growth at 37 ° C, planktonic cells were removed by inverting the plate onto a stack of paper towels, and the biofilm was washed three times with PBS. After washing, MM 1, MM 5, or MM 6 were added at 2×MIC to the biofilm and incubated statically in the dark for 60 min. The biofilm was then irradiated for 15, 30, or 45 min at 146 mW cm2. For the determination of the total bacterial number, acridine orange solution (2% in H2O) diluted 1:100 in Walpole's buffer (27.2 g L-1 sodium acetate trihydrate, adjusted to pH 4 with glacial acetic acid) was added to the wells.

[14] = test system: biofilms of P. aeruginosa and S. aureus; test: Biofilm metabolically active cells (ATP); assay type: cell-based, Pseudomonas aeruginosa, Staphylococcus aureus; conditions: 2×MIC, antibiotics 45 min, MMs 15 min + light, vs untreated
Procedure: as §7
For quantification of viable cells in biofilms, following the addition of 100 μL […] of TSB to each well, bacteria were detached from the biofilm by thorough mixing, after which […] of BacTiter-Glo™ reagent, prepared according to the manufacturer's instructions, was added to each well.

[15] = test system: persister cells of A. baumannii; test: Persister eradication, A. baumannii; assay type: cell-based, Acinetobacter baumannii; conditions: 1×MIC, 405 nm
[16] = E. coli BW25113, 405 nm light 43.8 J cm^−2
[17] = E. coli, Table 9, 405 nm light 43.8 J cm^−2

Row | Structure (SMILES) | MIC (E. coli [2]; [17]) | MIC (A. baumannii [3]) | MIC (P. aeruginosa [4]) | MIC (S. aureus [5]) | time to complete elimination (S. aureus [7]) | time to reduce persister cells to limit of detection [8] | time to reduce persister cells to limit of detection [10] | also measured
1 | CC(=O)N[C@@H](CS)C(=O)O [N-acetyl-L-cysteine] |  |  |  |  |  |  |  | protection against MM-induced killing by ROS scavenger (E. coli [1]): does not protect against MM-induced killing in E. coli
2 | C[C@@H]1Cc2cc(NCCN(C)C)c3ccccc3c2C1=C1c2ccccc2Sc2ccccc21 (stereo in doubt) [MM 2, N^1,N^1-Dimethyl-N^2-(2-methyl-1-(9H-thioxanthen-9-ylidene)-2,3-dihydro-1H-cyclopenta[a]naphthalen-5-yl) ethane-1,2-diamine] | 32 µM | 20 µM | 5 µM | 1.25 µM | 4 min | 5 min | 3 min | MIC (E. coli [2]; [16]): 32 µM; time to reduce cell number to limit of detection (E. coli [6]): 10 min; time to reduce persister cells to limit of detection [9]: 15 min
3 | Br.COc1cc2c(c3ccccc13)/C(=C1\c3ccccc3Sc3ccc(C#CCCCC[P+](c4ccccc4)(c4ccccc4)c4ccccc4)cc31)[C@H](C)C2 (stereo in doubt) [MM 4, (6-(9-(5-methoxy-2-methyl-2,3-dihydro-1H-cyclopenta[a]naphthalen-1-ylidene)-9H-thioxanthen-2-yl)hex-5-yn-1-yl)triphenylphosphonium bromide] | 1 µM | 2.5 µM | 0.625 µM | 0.078 µM | 2 min | 5 min | 3 min | MIC (E. coli [2]; [16]): 0.625 µM; time to reduce cell number to limit of detection (E. coli [6]): 4 min; bacterial toxicity in the absence of light (E. coli [6]; FIG. 31, different bacterial strains, no light): Some toxicity of the MM itself (in the absence of light); time to reduce cell number to limit of detection (A. baumannii [11]): 3 min; time to reduce cell number to limit of detection (P. aeruginosa [12]): 3 min
4 | C[C@@H](c1ncncc1F)[C@](O)(Cn1cncn1)c1ccc(F)cc1F [Voriconazole (VRC), Voriconazole] |  |  |  |  |  |  |  | MIC (C. albicans): 0.03 µg/mL; MIC (S. cerevisiae): 0.125 µg/mL; MIC (A. fumigatus): 0.5 µg/mL
5 | NC(N)=S [thiourea] |  |  |  |  |  |  |  | protection against MM-induced killing by ROS scavenger (E. coli [1]): does not protect against MM-induced killing in E. coli
6 | CO[C@H]1/C=C/O[C@@]2(C)Oc3c(C)c(O)c4c(O)c(c(/C=N/N5CCN(C)CC5)c(O)c4c3C2=O)NC(=O)/C(C)=C\C=C\[C@H](C)[C@H](O)[C@@H](C)[C@@H](O)[C@@H](C)[C@H](OC(C)=O)[C@@H]1C [rifampin] |  |  |  |  |  |  |  | reduction in total bacterial cell number in biofilm [13]: ≤ 64%; reduction in metabolically active cells in biofilm [14]: 18%
7 | CC[C@H](C)C[C@H](C)CCCCCCCCC(=O)N[C@H]1C[C@@H](O)[C@@H](NCCN)NC(=O)[C@@H]2[C@@H](O)CCN2C(=O)[C@H]([C@H](O)CCN)NC(=O)[C@H]([C@H](O)[C@@H](O)c2ccc(O)cc2)NC(=O)[C@@H]2C[C@@H](O)CN2C(=O)[C@H]([C@@H](C)O)NC1=O [Caspofungin (CAS), Caspofungin] |  |  |  |  |  |  |  | MIC (C. albicans): 0.25 µg/mL; MIC (S. cerevisiae): 0.5 µg/mL
8 | C[C@@H]1Cc2cc(N(C)CCN(C)C)c3ccccc3c2C1=C1c2ccccc2Sc2ccccc21 [MM 3, N^1,N^1,N^2-trimethyl-N^2-(2-methyl-1-(9H-thioxanthen-9-ylidene) ~2,3-dihydro-1H-cyclopenta[a]naphthalen-5-yl) ethane-1,2-diamine] | 16 µM | 20 µM | 5 µM | 1.25 µM | 4 min | 10 min | 10 min | time to reduce cell number to limit of detection (A. baumannii [11]): 10 min; time to reduce cell number to limit of detection (P. aeruginosa [12]): 10 min; time to reduce persister cells to limit of detection [15]: 15 min
